Measured values as given in patent US20250326744A1, “PIPERAZINE DERIVATIVE OR SALT THEREOF, AND PHARMACEUTICAL COMPOSITION” (priority 2022, published 2025).
Counter-ions that a name gives are not always drawn.

How the values were obtained:
[1] = tested on: mexB (PA) strain; assay: Combinational effect with antibacterial agent against Pseudomonas aeruginosa (Test Examples 2 and 4): mexB (PA) strain with LVFX, TC or AZT at 1/4 MIC, EC99; type: cell-based; details: for EC99, combinational effect with AZT, mexB (PA) / EC99, combinational effect with LVFX, mexB (PA) / EC99, combinational effect with TC, mexB (PA): mexB (PA) strain, Test Example 4; for EC99, combinational effect with AZT, mexB (PA) / EC99, mexB (PA), AZT: combined with AZT at 1/4 MIC; for EC99, combinational effect with LVFX, mexB (PA) / EC99, mexB (PA), LVFX: combined with LVFX at 1/4 MIC; for EC99, combinational effect with TC, mexB (PA) / EC99, mexB (PA), TC: combined with TC at 1/4 MIC; for EC99, mexB (PA), AZT / EC99, mexB (PA), LVFX / EC99, mexB (PA), TC: Table 52, Test Example 2, 16 to 20 hours culture, OD595
In short: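 P. aeruginosa mexB (PA) strain, lacking MexCD-OprJ, MexEF-OprN and MexXY and overexpressing MexAB-OprM, grown 16–20 h in CAMHB (10^4–5 CFU/well) with LVFX, TC or AZT at ¼ MIC plus test compound at 0–800 μM. Growth read as OD595; EC99 is the lowest compound concentration giving ≥99% growth inhibition.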

[2] = tested on: S-3769 strain; assay: Combinational effect with antibacterial agent against Pseudomonas aeruginosa (Test Examples 2 and 4): S-3769 strain with AMK or GM at 1/4 MIC, EC99; type: cell-based; details: for EC99, combinational effect with AMK, S-3769 strain / EC99, S-3769 strain, AMK: combined with AMK at 1/4 MIC; for EC99, combinational effect with AMK, S-3769 strain / EC99, combinational effect with GM, S-3769 strain: Test Example 4; for EC99, combinational effect with GM, S-3769 strain / EC99, S-3769 strain, GM: combined with GM at 1/4 MIC; for EC99, S-3769 strain, AMK / EC99, S-3769 strain, GM: Table 52, Test Example 2, 16 to 20 hours culture, OD595
In short: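 P. aeruginosa S-3769 (clinical isolate, MexY overexpressed) grown 16–20 h in CAMHB, 10^4 to 5 CFU/well, with AMK or GM at ¼ MIC plus test compound 0–800 μM. Growth read as OD595; EC99 is the lowest compound concentration giving ≥99% growth inhibition.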

Compound	EC99, combinational effect with AZT, mexB (PA) [1]	EC99, combinational effect with LVFX, mexB (PA) [1]	EC99, combinational effect with TC, mexB (PA) [1]	EC99, combinational effect with AMK, S-3769 strain [2]	EC99, combinational effect with GM, S-3769 strain [2]	EC99, mexB (PA), AZT [1]	EC99, mexB (PA), LVFX [1]	EC99, mexB (PA), TC [1]	EC99, S-3769 strain, AMK [2]	EC99, S-3769 strain, GM [2]
CCSc1cc(F)ccc1CN1CCN(C(=O)[C@H](N)C2CCN(CCc3cc(Cl)ccc3-c3cccc(O)c3Cl)CC2)CC1 [Example 616, (R)-2-amino-2-(1-(2-(2′,4-dichloro-3′-hydroxy-[1,1′-biphenyl]-2-yl)ethyl)piperidin-4-yl)-1-(4-(2-(ethylthio)-4-fluorobenzyl)piperazin-1-yl)ethan-1-one]	S (EC99≤12.5 μM)	S (EC99≤12.5 μM)	S (EC99≤12.5 μM)	S (EC99≤12.5 μM)	S (EC99≤12.5 μM)					
N[C@@H](C(=O)N1CCN(Cc2cccc3cccnc23)CC1)C1CCN(CCc2cc(Cl)ccc2-c2ccccc2)CC1 [Example 533, Hydrobromide of (R)-2-amino-2-(1-(2-(4-chloro-[1,1-biphenyl]-2-yl)ethyl)piperidin-4-yl)-1-(4-(quinolin-8-ylmethyl)piperazin-1-yl)ethan-1-one]	B (25 μM<EC99≤100 μM)	A (12.5 μM<EC99≤25 μM)	A (12.5 μM<EC99≤25 μM)	A (12.5 μM<EC99≤25 μM)	A (12.5 μM<EC99≤25 μM)					
CCSc1ncccc1CN1CCN(C(=O)[C@H](N)C2CCN(CCc3cc(Cl)ccc3-c3ccccc3)CC2)CC1 [Example 535, Hydrobromide of (R)-2-amino-2-(1-(2-(4-chloro-[1,1-biphenyl]-2-yl)ethyl)piperidin-4-yl)-1-(4-((2-(ethylthio)pyridin-3-yl)methyl)piperazin-1-yl)ethan-1-one]	B (25 μM<EC99≤100 μM)	A (12.5 μM<EC99≤25 μM)	B (25 μM<EC99≤100 μM)	B (25 μM<EC99≤100 μM)	B (25 μM<EC99≤100 μM)					
CCOc1ccc(O)c(F)c1CN1CCN(C(=O)[C@H](N)C2CCN(CCc3cc(Cl)ccc3-c3ccccc3)CC2)CC1 [Example 104, hydrochloride of (R)-2-amino-2-(1-(2-(4-chloro-[1,1′-biphenyl]-2-yl)ethyl)piperidin-4-yl)-1-(4-(6-ethoxy-2-fluoro-3-hydroxybenzyl)piperazin-1-yl)ethan-1-one]						A (12.5 μM<EC99≤25 μM)	B (25 μM<EC99≤100 μM)	A (12.5 μM<EC99≤25 μM)	S (EC99≤12.5 μM)	S (EC99≤12.5 μM)
CCOc1cccc(F)c1CN1CCN(C(=O)[C@H](N)C2CCN(CCc3cc(Cl)ccc3-c3cc(N)ccc3F)CC2)CC1 [Example 559, Hydrobromide of (R)-2-amino-2-(1-(2-(5′-amino-4-chloro-2′-fluoro-[1,1-biphenyl]-2-yl)ethyl)piperidin-4-yl)-1-(4-(2-ethoxy-6-fluorobenzyl)piperazin-1-yl)ethan-1-one]	S (EC99≤12.5 μM)	S (EC99≤12.5 μM)	S (EC99≤12.5 μM)	A (12.5 μM<EC99≤25 μM)	S (EC99≤12.5 μM)					
CCOc1cccc(F)c1CN1CCN(C(=O)[C@H](N)C2CCN(CCc3cccc4ccc(OC)cc34)CC2)CC1 [Example 149, Hydrobromide of (R)-2-amino-1-(4-(2-ethoxy-6-fluorobenzyl)piperazin-1-yl)-2-(1-(2-(7-methoxynaphthalen-1-yl)ethyl)piperidin-4-yl)ethan-1-one]						C (100 μM<EC99)	C (100 μM<EC99)	B (25 μM<EC99≤100 μM)	S (EC99≤12.5 μM)	S (EC99≤12.5 μM)
CCSc1cc(F)ccc1CN1CCN(C(=O)[C@H](N)C2CCN(CCc3cc(Cl)ccc3-c3cc(O)cc(F)c3)CC2)CC1 [Example 609, (R)-2-amino-2-(1-(2-(4-chloro-3′-fluoro-5′-hydroxy-[1,1′-biphenyl]-2-yl)ethyl)piperidin-4-yl)-1-(4-(2-(ethylthio)-4-fluorobenzyl)piperazin-1-yl)ethan-1-one]	S (EC99≤12.5 μM)	S (EC99≤12.5 μM)	S (EC99≤12.5 μM)	S (EC99≤12.5 μM)	S (EC99≤12.5 μM)					
CCOc1cccc(F)c1CN1CCN(C(=O)[C@H](N)C2CCN(CCc3cc(Cl)ccc3-c3cccc(N)c3)CC2)CC1 [Example 99, Hydrobromide of (R)-2-amino-2-(1-(2-(3′-amino-4-chloro-[1,1′-biphenyl]-2-yl)ethyl)piperidin-4-yl)-1-(4-(2-ethoxy-6-fluorobenzyl)piperazin-1-yl)ethan-1-one]						B (25 μM<EC99≤100 μM)	A (12.5 μM<EC99≤25 μM)	A (12.5 μM<EC99≤25 μM)	S (EC99≤12.5 μM)	S (EC99≤12.5 μM)
N[C@@H](C(=O)N1CCN(Cc2cccc3c2CCN3)CC1)C1CCN(CCc2cc(Cl)ccc2-c2ccccc2)CC1 [Example 513, Hydrobromide of (R)-2-amino-2-(1-(2-(4-chloro-[1,1-biphenyl]-2-yl)ethyl)piperidin-4-yl)-1-(4-(indolin-4-ylmethyl)piperazin-1-yl)ethan-1-one]	B (25 μM<EC99≤100 μM)	B (25 μM<EC99≤100 μM)	B (25 μM<EC99≤100 μM)	B (25 μM<EC99≤100 μM)	B (25 μM<EC99≤100 μM)					
N[C@@H](C(=O)N1CCN(Cc2ccccc2SC(F)(F)F)CC1)C1CCN(CCc2cc(Cl)ccc2-c2ccccc2)CC1 [Example 529, Hydrobromide of (R)-2-amino-2-(1-(2-(4-chloro-[1,1-biphenyl]-2-yl)ethyl)piperidin-4-yl)-1-(4-(2-((trifluoromethyl)thio)benzyl)piperazin-1-yl)ethan-1-one]	C (100 μM<EC99)	A (12.5 μM<EC99≤25 μM)	A (12.5 μM<EC99≤25 μM)	A (12.5 μM<EC99≤25 μM)	B (25 μM<EC99≤100 μM)					
CCOc1cccc(F)c1CN1CCN(C(=O)CN2CCC(CN)(CCc3ccccc3)CC2)CC1 [Example 425, hydrobromide of 2-(4-(aminomethyl)-4-phenethylpiperidin-1-yl)-1-(4-(2-ethoxy-6-fluorobenzyl)piperazin-1-yl)ethan-1-one]						C (100 μM<EC99)	C (100 μM<EC99)	C (100 μM<EC99)	B (25 μM<EC99≤100 μM)	B (25 μM<EC99≤100 μM)
CSc1cccnc1CN1CCN(C(=O)[C@H](N)C2CCN(CCc3cc(Cl)ccc3-c3ccccc3)CC2)CC1 [Example 536, Hydrobromide of (R)-2-amino-2-(1-(2-(4-chloro-[1,1-biphenyl]-2-yl)ethyl)piperidin-4-yl)-1-(4-((3-(methylthio)pyridin-2-yl)methyl)piperazin-1-yl)ethan-1-one]	A (12.5 μM<EC99≤25 μM)	A (12.5 μM<EC99≤25 μM)	B (25 μM<EC99≤100 μM)	B (25 μM<EC99≤100 μM)	B (25 μM<EC99≤100 μM)					
CCOc1cccc(F)c1CN1CCN(C(=O)[C@H](N)C2CCN(CCc3cc(Cl)ccc3-c3cccc(N)c3F)CC2)CC1 [Example 557, Hydrobromide of (R)-2-amino-2-(1-(2-(3′-amino-4-chloro-2′-fluoro-[1,1-biphenyl]-2-yl)ethyl)piperidin-4-yl)-1-(4-(2-ethoxy-6-fluorobenzyl)piperazin-1-yl)ethan-1-one]	S (EC99≤12.5 μM)	S (EC99≤12.5 μM)	S (EC99≤12.5 μM)	A (12.5 μM<EC99≤25 μM)	A (12.5 μM<EC99≤25 μM)					
CCOc1cccc(F)c1CN1CCN(C(=O)[C@H](N)C2CCN(CCc3cc(Cl)ccc3-c3cccs3)CC2)CC1 [Example 72, Hydrobromide of (R)-2-amino-2-(1-(5-chloro-2-(thiophen-2-yl)phenethyl)piperidin-4-yl)-1-(4-(2-ethoxy-6-fluorobenzyl)piperazin-1-yl)ethan-1-one]						B (25 μM<EC99≤100 μM)	C (100 μM<EC99)	B (25 μM<EC99≤100 μM)	S (EC99≤12.5 μM)	S (EC99≤12.5 μM)
